Data from publication PMC12833730, “Discovery of a First‐in‐Class Covalent Allosteric SHP1 Inhibitor with Immunotherapeutic Activity” (Angewandte Chemie (International Ed. in English), 2025).
Entries after “also recorded” stand apart in the source; their conditions may differ.

Key:
[1] = test system: whole proteome in Jurkat T cells; test: Chemoproteomic maleimide-biotin competition; assay type: cell-based, human
Description: To further define the selectivity of M029 for SHP1 and assess its cellular target engagement, a chemoproteomic investigation was performed to identify Cys residues protected by M029 from biotin‐tagged maleimide from the whole proteome in Jurkat T cells.^[ [79] ^] Since proteins labeled by M029 will be prevented from capture by the maleimide‐biotin probe, M029‐modified proteins can be readily identified by determining the ratio between the maleimide‐biotin‐bound proteins in the absence and presence of M029. […] The modest observed off‐target reactivity of M029 is not uncommon for targeted covalent inhibitors, including those FDA‐approved covalent drugs targeting EGFR (Osimertinib),^[ [80], [81] ^] BTK (Ibrutinib),^[ [82] ^] and KRAS (Sotorasib),^[ [83] ^] which also modify other proteins in addition to the intended targets. […]
For chemical proteomics studies, Cells were placed in 1 mL urea lysis buffer (100 mM Tris-HCl, pH 8, 8 M urea) and sonicated on ice for three 1-min rounds at 15% amplitude. […] Total protein concentrations were determined using the bicinchoninic acid (BCA) protein assay kit (Thermo Scientific Pierce, Rockford, IL). […]
Mal-biotin labeled peptides were diluted in 1 mL of PBS with 50 μL of High-Capacity NeutrAvidin slurry (Thermo Scientific). […] The peptide samples were analyzed by using an Evosep One LC coupled to a timsTOF HT mass spectrometer (Bruker). […]

MC38 tumors = MC38 tumors in nude mice; assay type: in vivo; conditions: 25 mg/kg
Excerpt: To further establish whether the inhibitory effects of M029 on tumor progression could be attributable to enhanced antitumor immune responses, we treated MC38 tumors in nude mice. […] To evaluate the importance of CD8^+ T and NK cells in M029‐induced antitumor activity, we induced CD8^+ T cell or NK cell depletion in the MC38 syngeneic model using anti‐CD8 or anti‐NK1.1 antibodies as described in Figure 6c. […] These findings are consistent with the known role of SHP1 in T cells and with our in vitro data that indicate M029 enhances T cell activation with no direct effect on tumor cells. […] These findings align with previous reports that activated CD8^+ T cells recruit NK cells to tumors through releasing cytokines and chemokines like IFN‐γ.^[ [92] ^] The observed changes in immune activity induced by M029, such as increased tumor infiltration of cytotoxic CD8^+ T cells, enhanced T cell cytotoxicity and effector function, as well as improved NK cell infiltration and activation, collectively contribute to the anticancer effects exerted by M029 treatment.
Figure 6 Cytotoxic T‐cell activity is necessary for M029 antitumor activity. […] C57BL/6 mice were injected with anti‐CD8 or anti‐NK1.1 antibodies every 3–4 days for 8 days after tumor inoculation. […]

SHP1 = molecular target: T1, SHP1 (Homo sapiens, UniProt P29350); test: Vanadate protection jump-dilution experiment; assay type: biochemical
T1 construct: SHP1, residues 245-543; made in house; host or cells: E. coli BL21(DE3)
T1 sequence (P29350 245-543): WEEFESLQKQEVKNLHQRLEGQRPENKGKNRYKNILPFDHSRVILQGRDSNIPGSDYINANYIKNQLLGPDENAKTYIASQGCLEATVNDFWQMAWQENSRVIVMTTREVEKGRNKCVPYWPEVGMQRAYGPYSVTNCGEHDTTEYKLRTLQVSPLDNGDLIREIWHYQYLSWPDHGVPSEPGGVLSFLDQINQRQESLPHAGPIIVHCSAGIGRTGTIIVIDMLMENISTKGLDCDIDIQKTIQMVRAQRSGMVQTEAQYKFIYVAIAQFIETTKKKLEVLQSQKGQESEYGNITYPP
Description: To further understand the mode of M029 action and ascertain whether M029 binds the SHP1 active site or a yet undefined novel site in SHP1, we performed a vanadate (VO4 ^3−) protection experiment. Vanadate is a reversible and competitive PTP inhibitor,^[ [76], [77] ^] and thus excessive vanadate would be expected to fully occupy the PTP active site and prevent covalent modifications of residues within the active site pocket. In this assay, SHP1 was co‐incubated with 30 µM M029 and 500 µM sodium orthovanadate or vehicle control for 30 min. The SHP1‐inhibitor complex was then rapidly diluted 100‐fold into a buffered solution containing 10 mM pNPP, and immediately, the absorbance at 405 nm was monitored over time to determine the remaining phosphatase activity.

N#Cc1ccsc1NS(=O)(=O)c1ccc(NC(=O)CCl)cc1 [M029, 2-Chloro-N-(4-(N-(3-cyanothiophen-2-yl)sulfamoyl)phenyl)acetamide]
rank of SHP1 (Cys480) among M029-labeled proteins ([1]; >2700 peptide fragments identified): second most
number of proteins significantly blocked from maleimide modification ([1]; cutoff 10-fold, p 0.05): five
MC38 tumor growth in nude mice (MC38 tumors): ineffective in inhibiting tumor growth; also recorded: no significant
SHP1 protection from inactivation by vanadate (SHP1; 30 µM M029 + 500 µM sodium orthovanadate, 30 min, 100-fold dilution): did not show a significant difference; also recorded: not protected from M029 inactivation
residual phosphatase activity after 100-fold jump dilution, compound alone (SHP1; 30 µM M029, 30 min): Little residual phosphatase activity
